Experimental data from ChEMBL document CHEMBL1201862, “PubChem BioAssay data set” (2004).
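Each compound was tested at five concentrations against cells in 96-well plates for 48 hours. GI50: concentration for 50% inhibition of growth.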 Active and inactive are the calls of the source. Cut-off read from the data, not from the text of the source: active = GI50 up to about 1.1 µM and inactive = higher.

What was measured:
Experiment in all cases: NCI tumour cell line growth inhibition, 48 h
[1] = system: A498
[2] = system: A549
[3] = system: EKVX
[4] = system: HCC 2998
[5] = system: HCT-15
[6] = system: HL-60
[7] = system: IGROV-1
[8] = system: KM-20L2
[9] = system: OVCAR-5
[10] = system: RXF 393
[11] = system: SF-539
[12] = system: SK-MEL-5
[13] = system: SNB-75
[14] = system: COLO 205
[15] = system: SNB-19
[16] = system: SN12C

Measured: GI50

CCCCCCCCCC1C(C)c2c([nH]c3ccccc23)C2C(=O)N(c3ccccc3)C(=O)C21 (stereo unspecified)
inactive: [1] 19.2 µM | [2] 17.7 µM | [3] 54 µM | [4] 12.9 µM | [6] 3.71 µM | [7] 18.8 µM | [8] 12.1 µM | [9] 17.4 µM | [10] 1.85 µM | [11] 19.7 µM | [12] 17 µM | [13] 13.5 µM
11 µM: [5]

Cn1ccc(=NS(=O)(=O)c2ccccc2)cc1
inactive: [1] > 100 µM | [2] > 100 µM | [14] > 100 µM | [3] > 100 µM | [4] > 100 µM | [6] > 100 µM | [7] > 100 µM | [8] > 100 µM | [9] > 100 µM | [10] > 100 µM | [11] > 100 µM | [12] > 100 µM | [15] > 100 µM | [13] > 100 µM

CCOC(=O)CN.CCOC(=O)Nc1ccc(S(=O)(=O)OC)cc1.CCOC(=O)Nc1ccc(S(=O)(=O)OC)cc1
> 50 µM: [5]
inactive: [1] > 50 µM | [2] > 50 µM | [14] > 50 µM | [3] > 50 µM | [4] > 50 µM | [6] > 50 µM | [7] > 50 µM | [8] > 50 µM | [9] > 50 µM | [11] > 50 µM | [12] > 50 µM | [16] > 50 µM | [15] > 50 µM | [13] > 50 µM

C#CCOCn1cnc2c(Sc3c([N+](=O)[O-])ncn3C)ncnc21
inactive: [1] > 100 µM | [2] > 100 µM | [14] > 100 µM | [3] > 100 µM | [4] > 100 µM | [6] > 100 µM | [7] > 100 µM | [8] > 100 µM | [9] > 100 µM | [10] > 100 µM | [12] > 100 µM | [16] > 100 µM | [15] > 100 µM | [13] 22.8 µM
> 100 µM: [5]

Cc1ccc(C2(O)CC(c3ccc([N+](=O)[O-])o3)=NN2C(=O)COc2ccccc2Cl)cc1 (stereo unspecified)
inactive: [1] 12.9 µM | [2] 18.1 µM | [14] 3.78 µM | [3] 13.6 µM | [4] 10.4 µM | [6] 2.84 µM | [7] 15.9 µM | [8] 8.65 µM | [9] 32.7 µM | [11] 17.4 µM | [12] 2.75 µM | [16] 8.22 µM | [15] 14.8 µM | [13] 15.3 µM
4.68 µM: [5]

CC12OC3CC(O1)C1(C=O)C4CCC5(C)C(c6ccc(=O)oc6)CCC5(O)C4CCC1(C3)O2 (stereo unspecified)
0.212 µM: [5]
active: [1] 0.33 µM | [2] 0.0611 µM | [14] 0.483 µM | [4] 0.56 µM | [6] 0.189 µM | [7] 0.341 µM | [8] 0.298 µM | [9] 0.383 µM | [10] 0.104 µM | [11] 0.102 µM | [12] 0.0895 µM | [16] 0.0621 µM | [15] 0.573 µM | [13] 0.252 µM

Cc1ccc(O)c(C(=O)CCCC(=O)c2cc(C)ccc2O)c1
active: [4] 0.152 µM
inactive: [1] > 100 µM | [14] > 100 µM | [3] > 100 µM | [6] 27.4 µM | [7] > 100 µM | [8] > 100 µM | [9] > 100 µM | [11] > 100 µM | [12] > 100 µM | [16] > 100 µM | [15] 46.1 µM | [13] 81.5 µM
45.8 µM: [5]
